Test results published in patent US8796244B2, “Imidazopyridine derivatives as inhibitors of receptor tyrosine kinases” (Astex Therapeutics Ltd, priority 2008, dated 2014).
Structures can show the parent of a compound that is named as a salt. Where two headings read alike, the source gives them in different places.

Experiments:
[1] = test system: parental wild-type Ba/F3 cells; assay: Ba/F3 (WT) cell proliferation assay (Alamar Blue); format: cell-based; details: Mus musculus; for inhibition at 3 µM / inhibition at 1 µM / inhibition at 10 µM: BaF3, read-out: BaF3 WT prolif, % inhibition
VEGFR2 = VEGFR2 (Homo sapiens (Human), UniProt P35968); assay: VEGFR2 in vitro kinase inhibitory activity assay (TRF, Flt3 substrate); format: biochemical; details: 1 h, read-out: VEGFR2 % I
VEGFR2, sequence (P35968 20-1356): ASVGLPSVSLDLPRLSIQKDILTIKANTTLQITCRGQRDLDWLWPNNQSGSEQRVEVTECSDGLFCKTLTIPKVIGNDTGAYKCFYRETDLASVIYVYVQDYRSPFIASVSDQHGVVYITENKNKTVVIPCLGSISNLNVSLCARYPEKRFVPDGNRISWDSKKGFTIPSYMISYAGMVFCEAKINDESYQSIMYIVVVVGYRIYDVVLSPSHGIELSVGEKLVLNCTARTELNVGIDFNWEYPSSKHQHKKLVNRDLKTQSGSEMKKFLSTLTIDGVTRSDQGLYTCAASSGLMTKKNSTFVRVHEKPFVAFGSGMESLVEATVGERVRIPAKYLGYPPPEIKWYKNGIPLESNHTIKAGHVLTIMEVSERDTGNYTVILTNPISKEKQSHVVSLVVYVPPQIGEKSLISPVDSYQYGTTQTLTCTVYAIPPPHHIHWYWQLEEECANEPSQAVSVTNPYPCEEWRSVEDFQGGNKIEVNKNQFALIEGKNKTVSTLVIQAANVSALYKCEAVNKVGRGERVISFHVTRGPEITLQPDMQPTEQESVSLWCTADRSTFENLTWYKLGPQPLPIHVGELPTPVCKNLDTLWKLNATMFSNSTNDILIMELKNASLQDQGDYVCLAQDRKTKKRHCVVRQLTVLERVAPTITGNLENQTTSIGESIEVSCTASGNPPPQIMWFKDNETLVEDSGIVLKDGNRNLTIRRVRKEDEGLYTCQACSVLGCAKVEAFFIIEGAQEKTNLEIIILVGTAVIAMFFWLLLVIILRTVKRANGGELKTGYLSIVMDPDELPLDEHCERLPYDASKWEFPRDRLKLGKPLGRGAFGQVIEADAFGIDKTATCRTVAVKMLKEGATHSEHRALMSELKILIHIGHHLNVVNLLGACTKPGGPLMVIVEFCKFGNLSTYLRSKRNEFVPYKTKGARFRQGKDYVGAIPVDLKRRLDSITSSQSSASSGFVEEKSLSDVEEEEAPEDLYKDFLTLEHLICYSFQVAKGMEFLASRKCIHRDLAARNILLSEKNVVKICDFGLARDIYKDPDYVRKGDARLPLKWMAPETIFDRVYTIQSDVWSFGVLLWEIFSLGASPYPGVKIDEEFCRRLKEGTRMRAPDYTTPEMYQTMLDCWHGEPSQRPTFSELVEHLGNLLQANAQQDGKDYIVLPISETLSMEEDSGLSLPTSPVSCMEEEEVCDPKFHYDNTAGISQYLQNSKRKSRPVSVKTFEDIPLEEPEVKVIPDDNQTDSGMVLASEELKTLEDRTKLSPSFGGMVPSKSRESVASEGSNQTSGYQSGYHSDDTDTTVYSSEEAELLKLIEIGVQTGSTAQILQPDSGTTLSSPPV

[2] = test system: LP-1 cell line (FGF-1/Heparin induced pERK); assay: Cell-based pERK ELISA, LP-1 cells; details: Homo sapiens; for IC50: LP-1, read-out: LP-1 pERK ELISA (μM)
[3] = BaF3, 72 hours, Alamar Blue, read-out: BaF3 WT prolif
[4] = BaF3, 72 h, read-out: BaF3 WT prolif (μM)

SMILES | IC50 [1, 3] [µM] | inhibition at 10 µM [1] [%] | IC50 [2] [µM] | other results
O=C(NCC(F)(F)F)Nc1cc(OC2CCCC2)cc(-c2cnc3cc(-c4ncccn4)ccn23)c1 [Compound 284] | 3.4 | – | – | inhibition at 3 µM [1]: 14%; inhibition at 10 µM (VEGFR2; at 10 μM): 62%
COCCOc1cc(NC(=O)NCC(F)(F)F)cc(-c2cnc3cc(-c4ncc(F)c(N)n4)ccn23)c1 [Compound 285] | – | 10 | – | inhibition at 1 µM [1]: 12%; inhibition at 3 µM (VEGFR2): 51%
Cc1cc(NC(=O)NCC(F)(F)F)cc(-c2cnc3cc(-c4ncc(F)c(N)n4)ccn23)c1 [Compound 291] | – | – | – | inhibition at 1 µM [1]: 24%; inhibition at 0.98 µM (VEGFR2; at 0.98 μM): 57%
Cc1cc(NC(=O)NCC(F)(F)F)cc(-c2cnc3cc(-c4ccnc(C(F)(F)F)n4)ccn23)c1 [Compound 306] | – | 0 | – | inhibition at 1 µM (VEGFR2): 60%
Nc1nc(-c2ccn3c(-c4cc(NC(=O)NCC(F)(F)F)ccc4F)cnc3c2)ncc1F [Compound 311] | – | 32 | – | inhibition at 3 µM [1]: 2%; inhibition at 0.978 µM (VEGFR2; at 0.978 μM): 20%
CCCCOC(=O)Nc1nc(-c2ccn3c(-c4cccc(NC(=O)NCC(F)(F)F)c4)cnc3c2)ncc1F [Compound 314] | – | 21 | – | inhibition at 3 µM (VEGFR2): 62%
COc1cccc(-c2ccn3c(-c4cccc(NC(=O)NCC(F)(F)F)c4)cnc3c2)n1 [Example 101, 1-{3-[7-(6-Methoxy-pyridin-2-yl)-imidazo[1,2-a]pyridin-3-yl]-phenyl}-3-(2,2,2-trifluoro-ethyl)-urea] | 0.16 | – | 0.055 | –
Nc1nc(-c2ccn3c(-c4cccc(NC(=O)NCC(F)(F)F)c4)cnc3c2)ncc1F [Example 102, 1-{3-[7-(4-Amino-5-fluoro-pyrimidin-2-yl)-imidazo[1,2-a]pyridin-3-yl]-phenyl}-3-(2,2,2-trifluoro-ethyl)-urea bis-hydrochloride] | – | – | 0.0939 | IC50 [1, 4]: 2.3 µM
Nc1ccnc(-c2ccn3c(-c4cccc(NC(=O)NCC(F)(F)F)c4)cnc3c2)c1 [Example 108, 1-{3-[7-(4-Amino-pyridin-2-yl)-imidazo[1,2-a]pyridin-3-yl]-phenyl}-3-(2,2,2-trifluoro-ethyl)-urea diformate] | – | 46 | 1.2 | –
Nc1ccnc(-c2ccn3c(-c4cccc(NC(=O)NCC(F)(F)F)c4)cnc3c2)n1 [Example 110, 1-{3-[7-(4-Amino-pyrimidin-2-yl)-imidazo[1,2-a]pyridin-3-yl]-phenyl}-3-(2,2,2-trifluoro-ethyl)-urea] | – | 43 | 0.0917 | –
O=C(NCC(F)(F)F)Nc1cccc(-c2cnc3cc(-c4ccc(CCO)cc4)ccn23)c1 [Example 111, 1-(3-{7-[4-(2-Hydroxy-ethyl)-phenyl]-imidazo[1,2-a]pyridin-yl}-phenyl)-3-(2,2,2-trifluoro-ethyl)-urea formate] | – | – | 0.016 | IC50 [1, 4]: 0.18 µM
CN(C)c1ccc(-c2ccn3c(-c4cccc(NC(=O)NCC(F)(F)F)c4)cnc3c2)nn1 [Example 113, 1-{3-[7-(6-Dimethylamino-pyridazin-3-yl)-imidazo[1,2-a]pyridin-3-yl]-phenyl}-3-(2,2,2-trifluoro-ethyl)-urea formate] | – | – | 0.016 | IC50 [1, 4]: 1.4 µM
O=C(NCC(F)(F)F)Nc1cccc(-c2cnc3cc(-c4ncccn4)ccn23)c1 [Example 114, 1-{3-[7-(Pyrimidin-2-yl)-imidazo[1,2-a]pyridin-3-yl]-phenyl}-3-(2,2,2-trifluoro-ethyl)-urea hydrochloride] | – | – | 0.047 | IC50 [1, 4]: 0.65 µM
Nc1ccc(-c2ccn3c(-c4cccc(NC(=O)NCC(F)(F)F)c4)cnc3c2)nc1 [Example 124, 1-{3-[7-(5-Amino-pyridin-2-yl)-imidazo[1,2-a]pyridin-3-yl]-phenyl}-3-(2,2,2-trifluoro-ethyl)-urea hydrochloride] | – | – | 0.024 | IC50 [1, 4]: 0.27 µM
O=C(NCC(F)(F)F)Nc1cccc(-c2cnc3cc(-c4ccc(=O)n(CCO)n4)ccn23)c1 [Example 126, 1-(3-{7-[1-(2-Hydroxy-ethyl)-6-oxo-1,6-dihydro-pyridazin-3-yl]-imidazol[1,2-a]pyridin-3-yl}-phenyl)-3-(2,2,2-trifluoro-ethyl)-urea] | – | 3.7 | 0.98 | –
CNc1ccc(-c2ccn3c(-c4cccc(NC(=O)NCC(F)(F)F)c4)cnc3c2)nn1 [Example 132, 1-{3-[7-(6-Methylamino-pyridazin-3-yl)-imidazo[1,2-a]pyridin-3-yl]-phenyl}-3-(2,2,2-trifluoro-ethyl)-urea] | – | 22.9 | 0.172 | –
O=C(NCC(F)(F)F)Nc1cccc(-c2cnc3cc(-c4ccc(N5CCCC(O)C5)nn4)ccn23)c1 (stereo not drawn) [Example 133, 1-(3-{7-[6-(3-Hydroxy-piperidin-1-yl)-pyridazin-3-yl]-imidazo[1,2-a]pyridin-3-yl}-phenyl)-3-(2,2,2-trifluoro-ethyl)-urea] | – | 31 | 0.0714 | inhibition at 3 µM [1]: 34%
Cc1cnnc(-c2ccn3c(-c4cccc(NC(=O)NCC(F)(F)F)c4)cnc3c2)c1 [Example 137, 1-{3-[7-(5-Methyl-pyridazin-3-yl)-imidazo[1,2-a]pyridin-3-yl]-phenyl}-3-(2,2,2-trifluoro-ethyl)-urea] | – | 23 | 0.034 | –
COc1cnc(-c2ccn3c(-c4cccc(NC(=O)NCC(F)(F)F)c4)cnc3c2)nc1 [Example 138, 1-{3-[7-(5-Methoxy-pyrimidin-2-yl)-imidazo[1,2-a]pyridin-3-yl]-phenyl}-3-(2,2 ,2-trifluoro-ethyl)-urea] | – | – | 0.038 | inhibition at 3 µM [1]: 36%
O=C(NCC(F)(F)F)Nc1cccc(-c2cnc3cc(-c4nccnn4)ccn23)c1 [Example 141, 1-[3-(7-[1,2,4]-Triazin-3-yl-imidazo[1,2-a]pyridin-3-yl)-phenyl]-3-(2,2,2-trifluoro-ethyl)-urea] | 0.042 | – | 0.11 | –
CN(C)CCCOc1ccc(-c2ccn3c(-c4cccc(NC(=O)NCC(F)(F)F)c4)cnc3c2)cn1 [Example 144, 1-(3-{7-[6-(3-Dimethylamino-propoxy)-pyridin-3-yl]-imidazo[1,2-a]pyridin-3-yl}-phenyl)-3-(2,2,2-trifluoro-ethyl)-urea] | 3.6 | – | 0.13 | –

SMILES | IC50 [1, 3] [µM] | inhibition at 10 µM [1] [%] | IC50 [2] [µM] | other results
O=C(NCC(F)(F)F)Nc1cncc(-c2cnc3cc(-c4cnn(C5CCNCC5)c4)ccn23)c1 [Example 152, 1-{5-[7-(1-Piperidin-4-yl-1H-pyrazol-4-yl)-imidazo[1,2-a]pyridin-3-yl]-pyridin-3-yl}-3-(2,2,2-trifluoro-ethyl)-urea] | – | 10 | 3.3 | –
NC(=O)Nc1cccc(-c2cnc3cc(-c4ccc(F)cc4)ccn23)c1 [Example 154, {3-[7-(4-Fluoro-phenyl)-imidazo[1,2-a]pyridin-3-yl]-phenyl}-urea] | 5.6 | – | 0.086 | –
Cc1cc(C)nc(-c2ccn3c(-c4cccc(NC(=O)NCC(F)(F)F)c4)cnc3c2)n1 [Example 160] | – | – | – | inhibition at 1 µM (VEGFR2): 49.5%
CNc1ncc(-c2ccn3c(-c4cccc(NC(=O)NCC(F)(F)F)c4)cnc3c2)cc1C [Example 161] | 0.15 | – | 0.01 | –
CCNC(=O)Nc1cccc(-c2cnc3cc(-c4ncc(F)c(N)n4)ccn23)c1 [Example 163] | – | 11 | 0.22 | inhibition at 3 µM [1]: 38%
O=C(NCC(F)(F)F)Nc1cccc(-c2cnc3cc(-c4ncc(F)c(NCCO)n4)ccn23)c1 [Example 164] | 4.2 | – | 0.26 | –
Nc1nc(-c2ccn3c(-c4cccc(NC(=O)NC5CC5)c4)cnc3c2)ncc1F [Example 166] | – | 0 | 0.29 | –
NC(=O)Nc1cccc(-c2cnc3cc(-c4ncc(F)c(N)n4)ccn23)c1 [Example 167] | – | 0 | – | inhibition at 10 µM ([2]; LP-1, read-out: LP-1 pERK ELISA, % inhibition): 60%
Nc1nc(-c2ccn3c(-c4cncc(NC(=O)NCC(F)(F)F)c4)cnc3c2)ncc1F [Example 168] | – | 0 | 0.43 | –
COc1cnc(-c2ccn3c(-c4cccc(NC(=O)NCC(F)(F)F)c4)cnc3c2)nc1N [Example 173] | – | 22 | 0.052 | inhibition at 3 µM [1]: 29.5%
Nc1cnc(-c2ccn3c(-c4cccc(NC(=O)NCC(F)(F)F)c4)cnc3c2)nc1 [Example 174] | 1.5 | – | 0.49 | –
Cc1cnc(-c2ccn3c(-c4cccc(NC(=O)NCC(F)(F)F)c4)cnc3c2)nc1N [Example 175] | 10 | – | 0.077 | –
Cc1cnc(N)nc1-c1ccn2c(-c3cccc(NC(=O)NCC(F)(F)F)c3)cnc2c1 [Example 176] | – | 59 | 0.33 | –
Nc1nc(-c2ccn3c(-c4cccc(NC(=O)NCC(F)(F)F)c4)cnc3c2)ncc1C(F)(F)F [Example 178] | 4.52 | – | 0.018 | –
COc1nccc(-c2ccn3c(-c4cccc(NC(=O)NCC(F)(F)F)c4)cnc3c2)n1 [Example 181] | 0.49 | – | 0.046 | –
NCCNc1nc(-c2ccn3c(-c4cccc(NC(=O)NCC(F)(F)F)c4)cnc3c2)ncc1F [Example 182] | 10 | – | 2.5 | –
COc1cc(-c2ccn3c(-c4cccc(NC(=O)NCC(F)(F)F)c4)cnc3c2)ncn1 [Example 183] | 0.29 | – | 0.028 | –
NC(=O)c1ccnc(-c2ccn3c(-c4cccc(NC(=O)NCC(F)(F)F)c4)cnc3c2)n1 [Example 185] | – | – | 0.14 | inhibition at 3 µM [1]: 0%
O=C(NCC(F)(F)F)Nc1cccc(-c2cnc3cc(/C=C/c4ccccn4)ccn23)c1 [Example 186] | 0.32 | – | 0.019 | –
COc1ncc(-c2ccn3c(-c4cccc(NC(=O)NCC(F)(F)F)c4)cnc3c2)cc1C [Example 188] | 0.43 | – | 0.09 | –
